Assay results from ChEMBL document CHEMBL3992552, “Mechanisms of action and structure-activity relationships of cytotoxic flavokawain derivatives” (Bioorg Med Chem, 2017).
The source made the active and inactive calls. The rule behind the calls is not given here.

Legend:
[1] = Selectivity index, ratio of IC50 for human fibroblasts to IC50 for human HCT116 cells
MCF7 [2] = test: Induction of apoptosis in human MCF7 cells harboring wild-type p53 assessed as upregulation of cyclinB1 measured after 18 hrs by Hoechst staining based assay; format: functional, cell-based
NCI-H727 [3] = test: Cytotoxicity against human NCI-H727 cells assessed as cell viability after 48 hrs by Hoechst 33342 staining based assay; format: functional; settings: NCI-H727, 48 h
MDA-MB-231 [4] = test: Cell cycle arrest in human MDA-MB-231 cells harboring p53 mutant assessed as accumulation at S phase at 25 uM measured after 48 hrs by Hoechst/BrdU staining based fluorescence assay (reference value: 42.2%); format: functional
HCT-116 [5] = test: Induction of apoptosis in human HCT116 cells harboring wild-type p53 assessed as increase in cleaved caspase3 at 2 times IC50 after 48 hrs by Hoechst staining based assay; format: functional, cell-based
HaCaT [6] = test: Cell cycle arrest in human HaCaT cells harboring […] p53 assessed as accumulation at S phase at 10 uM measured after 48 hrs by Hoechst/BrdU staining based fluorescence assay (reference value: 52.3%); format: functional
HaCaT [7] = test: Cell cycle arrest in human HaCaT cells harboring […] p53 assessed as mitotic index at 10 uM measured after 48 hrs by Hoechst staining based fluorescence assay (reference value: 2.6); format: functional
HaCaT [8] = test: Cytotoxicity against human HaCaT cells assessed as cell survival at 50 uM after 48 hrs by Hoechst 33342 staining based assay relative to control; format: functional; settings: read-out: Survival
HCT-116 [9] = test: Cell cycle arrest in human HCT116 cells harboring wild-type p53 assessed as mitotic index at 25 uM measured after 48 hrs by Hoechst staining based fluorescence assay (reference value: 2.3); format: functional
[10] = Selectivity index, ratio of IC50 for human fibroblasts to IC50 for human RL cells
HCT-116 [11] = test: Cytotoxicity against human HCT116 cells assessed as cell viability after 48 hrs by Hoechst 33342 staining based assay; format: functional; settings: HCT-116, 48 h
Caco-2 [12] = test: Cell cycle arrest in human Caco2 cells assessed as accumulation at S phase at 25 uM measured after 48 hrs by Hoechst/BrdU staining based fluorescence assay (reference value: […]); format: functional
HCT-116 [13] = test: Induction of apoptosis in human HCT116 cells harboring wild-type p53 assessed as increase in late apoptosis at 2 times IC50 after 48 hrs by YoPro/propidium iodide/Hoechst staining based assay; format: functional, cell-based
Huh-7 [14] = test: Cell cycle arrest in human HuH7 cells assessed as accumulation at S phase at 10 uM measured after 48 hrs by Hoechst/BrdU staining based fluorescence assay (reference value: 44%); format: functional
HaCaT [15] = test: Cell cycle arrest in human HaCaT cells harboring […] p53 assessed as accumulation at S phase at 25 uM measured after 48 hrs by Hoechst/BrdU staining based fluorescence assay (reference value: 52.3%); format: functional
Caco-2 [16] = test: Cell cycle arrest in human Caco2 cells assessed as accumulation at S phase at 10 uM measured after 48 hrs by Hoechst/BrdU staining based fluorescence assay (reference value: […]); format: functional
MDA-MB-231 [17] = test: Cell cycle arrest in human MDA-MB-231 cells harboring p53 mutant assessed as mitotic index at 10 uM measured after 48 hrs by Hoechst staining based fluorescence assay (reference value: 2.1); format: functional
PC-3 [18] = test: Cytotoxicity against human PC3 cells assessed as cell viability after 48 hrs by Hoechst 33342 staining based assay; format: functional; settings: PC-3, 48 h
HCT-116 [19] = test: Cell cycle arrest in human HCT116 cells assessed as accumulation at G1/S phase by Hoechst staining based fluorescence assay; format: functional
PC-3 [20] = test: Induction of apoptosis in human PC3 cells harboring p53 mutant assessed as increase in cleaved caspase3 at 2 times IC50 after 48 hrs by Hoechst staining based assay; format: functional, cell-based
NCI-H727 [21] = test: Cell cycle arrest in human NCI-H727 cells assessed as accumulation at G1/S phase by Hoechst staining based fluorescence assay; format: functional
[22] = Selectivity index, ratio of IC50 for human fibroblasts to IC50 for human MDA-MB-231 cells
[23] = Selectivity index, ratio of IC50 for human fibroblasts to IC50 for human HuH7 cells
MCF7 [24] = test: Induction of apoptosis in human MCF7 cells harboring wild-type p53 assessed as increase in late apoptosis at 2 times IC50 after 24 hrs by YoPro/propidium iodide/Hoechst staining based assay; format: functional, cell-based
[25] = Selectivity index, ratio of IC50 for human fibroblasts to IC50 for human NCI-H727 cells
PC-3 [26] = test: Cell cycle arrest in human PC3 cells harboring p53 mutant assessed as mitotic index at 10 uM measured after 48 hrs by Hoechst staining based fluorescence assay (reference value: 2.5); format: functional
MDA-MB-231 [27] = test: Induction of apoptosis in human MDA-MB-231 cells harboring p53 mutant assessed as increase in early apoptosis at 2 times IC50 after 24 hrs by YoPro/propidium iodide/Hoechst staining based assay; format: functional, cell-based
[28] = Selectivity index, ratio of IC50 for human fibroblasts to IC50 for human HaCaT cells
Huh-7 [29] = test: Cytotoxicity against human HuH7 cells assessed as cell survival at 50 uM after 48 hrs by Hoechst 33342 staining based assay relative to control; format: functional; settings: Huh-7, 48 h, read-out: Survival
Huh-7 [30] = test: Cell cycle arrest in human HuH7 cells assessed as mitotic index at 10 uM measured after 48 hrs by Hoechst staining based fluorescence assay (reference value: 2.2); format: functional
Caco-2 [31] = test: Cell cycle arrest in human Caco2 cells assessed as mitotic index at 10 uM measured after 48 hrs by Hoechst staining based fluorescence assay (reference value: 3.6); format: functional
HaCaT [32] = test: Cell cycle arrest in human HaCaT cells harboring […] p53 assessed as mitotic index at 25 uM measured after 48 hrs by Hoechst staining based fluorescence assay (reference value: 2.6); format: functional
PC-3 [33] = test: Cell cycle arrest in human PC3 cells harboring p53 mutant assessed as accumulation at S phase at 25 uM measured after 48 hrs by Hoechst/BrdU staining based fluorescence assay (reference value: 40.8%); format: functional
MDA-MB-231 [34] = test: Induction of apoptosis in human MDA-MB-231 cells harboring p53 mutant assessed as increase in cleaved caspase3 at 2 times IC50 after 24 hrs by Hoechst staining based assay; format: functional, cell-based
NCI-H727 [35] = test: Cytotoxicity against human NCI-H727 cells assessed as cell survival at 50 uM after 48 hrs by Hoechst 33342 staining based assay relative to control; format: functional; settings: NCI-H727, 48 h, read-out: Survival
HCT-116 [36] = test: Cytotoxicity against human HCT116 cells assessed as cell survival at 50 uM after 48 hrs by Hoechst 33342 staining based assay relative to control; format: functional; settings: HCT-116, 48 h, read-out: Survival
HCT-116 [37] = test: Induction of apoptosis in human HCT116 cells harboring wild-type p53 assessed as upregulation of p21 measured after 48 hrs by Hoechst staining based fluorescence assay; format: functional, cell-based
MCF7 [38] = test: Induction of apoptosis in human MCF7 cells harboring wild-type p53 assessed as upregulation of p21 measured after 48 hrs by Hoechst staining based fluorescence assay; format: functional, cell-based

Row | Compound | Ratio IC50 [1] | Activity (MCF7 [2]) | IC50 (NCI-H727 [3]) [µM] | Activity (MDA-MB-231 [4]) | Activity (HCT-116 [5]) | Activity (HaCaT [6]) [%] | Activity_index (HaCaT [7]) | viability at 50 µM (HaCaT [8]) [%] | Activity_index (HCT-116 [9]) | Ratio IC50 [10] | IC50 (HCT-116 [11]) [µM] | Activity (Caco-2 [12]) [%] | Activity (HCT-116 [13]) | Activity (Huh-7 [14]) [%] | Activity (HaCaT [15]) [%] | Activity (Caco-2 [16]) [%] | IC50 (PC-3 [18]) [µM] | Activity (HCT-116 [19]) | Activity (PC-3 [20]) | Activity (NCI-H727 [21]) | also measured
1 | COc1cc(OC)c(C(=O)/C=C/c2ccccc2SC)c(OC)c1 | 4.7 | Active | 8.7 | 16% | Active | 24 | 18.9 | 6 | 0.4 | 3.8 | 6.8 | 2.2 | Active | 37 | 0 | 36 | 7.6 | Active | Active | Active | Activity_index (MDA-MB-231 [17]): 18; Ratio IC50 [22]: 3.2; Ratio IC50 [23]: 2.3; Activity (MCF7 [24]): Active; Ratio IC50 [25]: 3.7; Activity_index (PC-3 [26]): 12.1; Activity (MDA-MB-231 [27]): Active; Ratio IC50 [28]: 4.1; viability at 50 µM (Huh-7 [29]): 4%; Activity_index (Huh-7 [30]): 6.5; Activity_index (Caco-2 [31]): 29.3; Activity_index (HaCaT [32]): 0.1; Activity (PC-3 [33]): 0%; Activity (MDA-MB-231 [34]): Active; viability at 50 µM (NCI-H727 [35]): 1%; viability at 50 µM (HCT-116 [36]): 0%; Activity (HCT-116 [37]): Active; Activity (MCF7 [38]): Active
2 | COc1cc(O)c(C(=O)/C=C/c2ccccc2SC)c(OC)c1 | 3.6 | Active | 9 | inactive | Active | 51 | 3.1 | 22 | 1.3 | 4.1 | 10 | 37 | Active | 50 | 30 | 50 | 8.7 | Active | Active | Active | Activity (MDA-MB-231 [17]): inactive; Ratio IC50 [23]: 2.2; Activity (MCF7 [24]): Active; Ratio IC50 [25]: 4; Activity_index (PC-3 [26]): 4.4; Ratio IC50 [28]: 3.4; viability at 50 µM (Huh-7 [29]): 38%; Activity_index (Huh-7 [30]): 2.3; Activity_index (Caco-2 [31]): 6; Activity_index (HaCaT [32]): 7.8; Activity (PC-3 [33]): 31%; viability at 50 µM (NCI-H727 [35]): 8%; viability at 50 µM (HCT-116 [36]): 1%; Activity (HCT-116 [37]): Active; Activity (MCF7 [38]): Active
